Reference: patent publication US10919885B2, “Compounds and uses thereof” (Yumanity Therapeutics, Inc., priority 2018, dated 2021)
Values belong to the compound of their own block, whether it stands above or below them.

Legend:
human SCD1 = human SCD1 (Homo sapiens (Human), UniProt O00767); assay: Yeast growth assay, strain expressing human SCD1 as the sole desaturase (reduced growth as surrogate for SCD inhibition); type: cell-based; conditions: yeast with OLE1 deleted expressing human SCD1 from a plasmid; growth read as OD600 after 40 h at 30° C.; top drug concentration 33.3 μM
Procedure, shortened: (§1)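 Human SCD1 or SCD5 expressed from a plasmid in OLE1-deleted yeast as the sole desaturase. Cells washed free of Tween and fatty acids, grown with compound in SD-Ura glucose medium 40 h at 30 °C; growth measured as OD600, reduced growth taken as SCD inhibition.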

human SCD5 = human SCD5 (Homo sapiens (Human), UniProt Q86SK9); assay: Yeast growth assay, strain expressing human SCD5 as the sole desaturase (reduced growth as surrogate for SCD inhibition); type: cell-based; conditions: yeast with OLE1 deleted expressing human SCD5 from a plasmid; growth read as OD600 after 40 h at 30° C.; top drug concentration 33.3 μM
Procedure, shortened: as §1

human SCD5, sequence (Q86SK9 whole entry): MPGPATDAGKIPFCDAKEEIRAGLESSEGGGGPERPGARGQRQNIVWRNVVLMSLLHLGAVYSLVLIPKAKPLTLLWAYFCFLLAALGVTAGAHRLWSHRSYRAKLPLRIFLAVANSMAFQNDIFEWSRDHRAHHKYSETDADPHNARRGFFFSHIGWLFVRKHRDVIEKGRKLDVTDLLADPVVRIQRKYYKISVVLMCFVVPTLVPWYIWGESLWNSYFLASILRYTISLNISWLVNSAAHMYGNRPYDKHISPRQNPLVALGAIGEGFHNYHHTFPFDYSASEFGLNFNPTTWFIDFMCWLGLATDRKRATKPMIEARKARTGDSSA
human SCD1, sequence (O00767 whole entry): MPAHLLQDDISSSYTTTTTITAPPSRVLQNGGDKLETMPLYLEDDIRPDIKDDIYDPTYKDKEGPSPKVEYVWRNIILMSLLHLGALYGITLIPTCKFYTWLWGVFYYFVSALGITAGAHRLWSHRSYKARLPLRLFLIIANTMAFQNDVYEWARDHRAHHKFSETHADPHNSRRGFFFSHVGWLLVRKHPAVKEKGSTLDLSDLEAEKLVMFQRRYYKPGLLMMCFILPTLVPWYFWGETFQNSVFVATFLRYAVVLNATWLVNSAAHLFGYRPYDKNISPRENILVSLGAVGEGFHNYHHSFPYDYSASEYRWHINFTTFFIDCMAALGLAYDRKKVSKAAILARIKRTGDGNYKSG

SMILES: O=C(Nc1cnn(Cc2cccc(F)c2)c1)c1cc(CO)on1 [Compound 191]
IC50 (human SCD1): > 45 µM
IC50 (human SCD5): > 45 µM

SMILES: Cn1nc(Cc2ccc(Cl)c(Cl)c2)cc1NC(=O)c1cc(-c2ccco2)on1 [Compound 27]
IC50 (human SCD1): > 45 µM
IC50 (human SCD5): > 45 µM

SMILES: O=C(c1cc(-c2ccccn2)on1)N(Cc1ccc(F)c(F)c1)c1cnn(Cc2ccc(F)c(F)c2)c1 [Compound 62, N-(3,4-difluorobenzyl)-N-(1-(3,4-difluorobenzyl)-1H-pyrazol-4-yl)-5-(pyridin-2-yl)isoxazole-3-carboxamide]
IC50 (human SCD1): > 45 µM
IC50 (human SCD5): 33.1 µM

SMILES: O=C(Nc1cnn(Cc2ccccc2)c1)c1cc(-c2ccncc2F)on1 [Compound 147, N-(1-benzyl-1H-pyrazol-4-yl)-5-(3-fluoropyridin-4-yl)isoxazole-3-carboxamide]
IC50 (human SCD1): > 45 µM
IC50 (human SCD5): 7.4 µM

SMILES: CNC(=O)c1cc(C(=O)Nc2cnn(Cc3cccc(F)c3)c2)no1 [Compound 87]
IC50 (human SCD1): 15 µM
IC50 (human SCD5): > 45 µM

SMILES: O=C(Nc1cn(Cc2ccccc2)nc1C(F)(F)F)c1cc(-c2ccccc2)on1 [Compound 82]
IC50 (human SCD1): > 45 µM
IC50 (human SCD5): > 45 µM

SMILES: N#Cc1ccc(CN(C(=O)c2cc(-c3ccccc3)on2)c2cnn(Cc3ccc(C#N)cc3)c2)cc1 [Compound 47]
IC50 (human SCD1): > 45 µM
IC50 (human SCD5): > 45 µM

SMILES: N#Cc1cc(F)cc(Cn2cc(NC(=O)c3cc(-c4ccccc4)on3)cn2)c1 [Compound 98]
IC50 (human SCD1): > 45 µM
IC50 (human SCD5): > 45 µM

SMILES: CN(C)CCC(c1ccccc1)n1cc(NC(=O)c2cc(-c3ccccc3)on2)cn1 (centres unmarked) [Compound 65]
IC50 (human SCD1): > 45 µM
IC50 (human SCD5): > 45 µM

SMILES: O=C(c1cc(-c2ccccc2)on1)N1CC(CCl)(CNc2ccccc2)C1 [Compound 215]
IC50 (human SCD1): 1.86 µM
IC50 (human SCD5): 1.36 µM

SMILES: CCOC(=O)c1cc(C(=O)Nc2cnn(Cc3ccccc3)c2)on1 [Compound 151]
IC50 (human SCD1): > 45 µM
IC50 (human SCD5): > 45 µM

SMILES: CC(C)(O)c1cc(C(=O)Nc2cnn(Cc3ccccc3)c2)on1 [Compound 152]
IC50 (human SCD1): > 45 µM
IC50 (human SCD5): > 45 µM

SMILES: O=C(Nc1cnn(Cc2cccnc2)c1)c1cc(-c2ccccc2)on1 [Compound 39]
IC50 (human SCD1): > 45 µM
IC50 (human SCD5): > 45 µM

SMILES: O=C(Nc1cnn(Cc2ccccc2Cl)c1)c1cc(-c2cccc3cnn(C4COC4)c23)on1 [Compound 93]
IC50 (human SCD1): > 45 µM
IC50 (human SCD5): > 45 µM

SMILES: O=C(Nc1cnn(Cc2ccccc2)c1)c1cc(-c2ccncc2Cl)on1 [Compound 134, N-(1-benzyl-1H-pyrazol-4-yl)-5-(3-chloropyridin-4-yl)isoxazole-3-carboxamide]
IC50 (human SCD1): 5.32 µM
IC50 (human SCD5): 4.96 µM

SMILES: C=C(C)c1cc(C(=O)Nc2cnn(Cc3cc(F)ccc3C(F)(F)F)c2)no1 [Compound 84]
IC50 (human SCD1): > 45 µM
IC50 (human SCD5): > 45 µM

SMILES: O=C(c1cc(-c2ccc3c(c2)OCO3)on1)N1CC(Oc2ccccc2)C1 [Compound 208]
IC50 (human SCD1): > 45 µM
IC50 (human SCD5): > 45 µM

SMILES: CC(C)(C)OC(=O)n1cc(NC(=O)c2cc(-c3ccco3)on2)cn1 [Compound 12]
IC50 (human SCD1): > 45 µM
IC50 (human SCD5): > 45 µM

SMILES: O=C(Nc1cnn(Cc2cccc(F)c2)c1)c1cc(-c2ccno2)on1 [Compound 168]
IC50 (human SCD1): > 45 µM
IC50 (human SCD5): > 45 µM

SMILES: O=C(Nc1cnn(Cc2ccccc2)c1)c1cc(-c2ccccn2)no1 [Compound 129]
IC50 (human SCD1): > 45 µM
IC50 (human SCD5): > 45 µM

SMILES: Cc1nnc(-c2cc(C(=O)Nc3cnn(Cc4cccc(F)c4)c3)no2)o1 [Compound 179]
IC50 (human SCD1): > 45 µM
IC50 (human SCD5): > 45 µM

SMILES: COc1cccc(N2CCN(C(=O)c3cc(-c4ccc5c(c4)OCO5)on3)CC2)c1 [Compound 271, (5-(benzo[d][1,3]dioxol-5-yl)isoxazol-3-yl)(4-(3-methoxyphenyl)piperazin-1-yl)methanone]
IC50 (human SCD1): > 45 µM
IC50 (human SCD5): 4.71 µM

SMILES: CC(C)(C)c1cc(C(=O)Nc2cnn(Cc3ccccc3)c2)no1 [Compound 118, N-(1-benzyl-1H-pyrazol-4-yl)-5-(tert-butyl)isoxazole-3-carboxamide]
IC50 (human SCD1): 0.15 µM
IC50 (human SCD5): 2.7 µM

SMILES: O=C(c1cc(-c2ccco2)on1)N(Cc1ccc(Cl)cc1)c1cnn(Cc2ccc(Cl)cc2)c1 [Compound 32]
IC50 (human SCD1): > 45 µM
IC50 (human SCD5): > 45 µM

SMILES: O=C(Nc1cnn(Cc2ccccc2)c1)c1cc(-c2ccccc2Cl)on1 [Compound 141]
IC50 (human SCD1): > 45 µM
IC50 (human SCD5): > 45 µM

SMILES: O=C(Nc1cnn(Cc2ccccc2)n1)c1cc(-c2ccccc2)on1 [Compound 52]
IC50 (human SCD1): > 45 µM
IC50 (human SCD5): > 45 µM

SMILES: CNC(=O)c1ccc(-c2cc(C(=O)N3CC(Cc4ccccc4)C3)no2)cc1 [Compound 230]
IC50 (human SCD1): > 45 µM
IC50 (human SCD5): > 45 µM

SMILES: O=C(Nc1cnn(Cc2ccc(F)cc2)c1)c1cc(-c2ccccc2)on1 [Compound 112]
IC50 (human SCD1): > 45 µM
IC50 (human SCD5): > 45 µM

SMILES: O=C(Nc1cc(-c2ccco2)on1)c1cnn(Cc2ccc(Cl)c(Cl)c2)c1 [Compound 59]
IC50 (human SCD1): > 45 µM
IC50 (human SCD5): > 45 µM

SMILES: N#Cc1nn(Cc2ccccc2)cc1NC(=O)c1cc(-c2ccccc2)on1 [Compound 68]
IC50 (human SCD1): > 45 µM
IC50 (human SCD5): > 45 µM

SMILES: COc1ccccc1-c1cc(C(=O)Nc2cnn(Cc3ccccc3)c2)no1 [Compound 136]
IC50 (human SCD1): > 45 µM
IC50 (human SCD5): > 45 µM

SMILES: O=C(Nc1cnn(-c2ccccc2)c1)c1cc(-c2ccco2)on1 [Compound 33]
IC50 (human SCD1): > 45 µM
IC50 (human SCD5): > 45 µM

SMILES: O=C(Nc1cnn(Cc2ccccc2)c1)c1cc(-c2ccc(F)cn2)on1 [Compound 137]
IC50 (human SCD1): > 45 µM
IC50 (human SCD5): > 45 µM

Second part, the compound after the results:

IC50 (human SCD1): > 45 µM
IC50 (human SCD5): 5.16 µM
SMILES: Cn1cc2ccc(-c3cc(C(=O)N4CC(c5ccccc5)C4)no3)cc2n1 [Compound 235, (5-(2-methyl-2H-indazol-6-yl)isoxazol-3-yl)(3-phenylazetidin-1-yl)methanone]

IC50 (human SCD1): 32.4 µM
IC50 (human SCD5): > 45 µM
SMILES: O=C(c1cc(-c2ccc3ncnn3c2)on1)N1CCC[C@H]1c1ccccc1 [Compound 441]

IC50 (human SCD1): > 45 µM
IC50 (human SCD5): 4.16 µM
SMILES: O=C(c1cc(-c2ccccc2)on1)N1CCC(Oc2ccccc2)CC1 [Compound 288, (4-phenoxy-1-piperidyl)-(5-phenylisoxazol-3-yl)methanone]

IC50 (human SCD1): 0.21 µM
IC50 (human SCD5): > 45 µM
SMILES: O=C(c1cc(-c2ccccc2)on1)N1CCN(c2cccc(F)c2)CC1 [Compound 294]

IC50 (human SCD1): > 45 µM
IC50 (human SCD5): > 45 µM
SMILES: O=C(c1cc(-c2ccc3c(c2)OCO3)on1)N1CCC(c2ccccc2)C1 (centres unmarked) [Compound 329]

IC50 (human SCD1): > 45 µM
IC50 (human SCD5): > 45 µM
SMILES: CN1CCC(C2CCCN2C(=O)c2cc(-c3ccc4c(c3)OCO4)on2)CC1 (centres unmarked) [Compound 424]

IC50 (human SCD1): 30.4 µM
IC50 (human SCD5): 4.92 µM
SMILES: O=C(c1cc(-c2ccc3c(c2)OCO3)on1)N1CCCC12CC2 [Compound 371]

IC50 (human SCD1): 43.5 µM
IC50 (human SCD5): > 45 µM
SMILES: COc1ccc(C2CCCN2C(=O)c2cc(-c3ccc(OC)c(F)c3)on2)cc1 (centres unmarked) [Compound 382]

IC50 (human SCD1): > 45 µM
IC50 (human SCD5): > 45 µM
SMILES: O=C(NC1CCNC1)c1cc(-c2ccco2)on1 (centres unmarked) [Compound 336]

IC50 (human SCD1): > 45 µM
IC50 (human SCD5): > 45 µM
SMILES: O=C(c1ccccc1)N1CCN(C(=O)c2cc(-c3ccc4c(c3)OCO4)on2)CC1 [Compound 281]

IC50 (human SCD1): > 45 µM
IC50 (human SCD5): > 45 µM
SMILES: O=C(c1cc(-c2ccc3nccnc3c2)on1)N1CCC[C@H]1c1ccccc1 [Compound 450]

IC50 (human SCD1): > 45 µM
IC50 (human SCD5): 4.67 µM
SMILES: O=C(c1cc(-c2ccc3c(c2)OCO3)on1)N1CCCC1Cc1ccccc1 (centres unmarked) [Compound 434]

IC50 (human SCD1): > 45 µM
IC50 (human SCD5): > 45 µM
SMILES: COc1ccc(C2CCCN2C(=O)c2cc(-c3ccc4ocnc4c3)on2)cc1 (centres unmarked) [Compound 400]

IC50 (human SCD1): > 45 µM
IC50 (human SCD5): > 45 µM
SMILES: O=C(NC1CCN(c2ccccc2)CC1)c1cc(-c2ccco2)on1 [Compound 286]

IC50 (human SCD1): > 45 µM
IC50 (human SCD5): > 45 µM
SMILES: O=C(c1cc(-c2ccc3c(c2)OCO3)on1)N1CCCC1c1ccccc1F (centres unmarked) [Compound 366]

IC50 (human SCD1): > 45 µM
IC50 (human SCD5): > 45 µM
SMILES: O=C(Nc1ccccc1)C1CN(C(=O)c2cc(-c3ccccc3)on2)C1 [Compound 237]

IC50 (human SCD1): 7.61 µM
IC50 (human SCD5): > 45 µM
SMILES: NC(=O)c1cc(C(=O)N2CCC(c3ccccc3)C2)no1 (centres unmarked) [Compound 348]

IC50 (human SCD1): > 45 µM
IC50 (human SCD5): > 45 µM
SMILES: CNC(=O)c1ccc(-c2cc(C(=O)N3CC=C(c4ccccc4)CC3)no2)cc1 [Compound 319]

IC50 (human SCD1): > 45 µM
IC50 (human SCD5): > 45 µM
SMILES: N#Cc1ccccc1C1CCCN1C(=O)c1cc(-c2ccc3c(c2)OCO3)on1 (centres unmarked) [Compound 398]

IC50 (human SCD1): > 45 µM
IC50 (human SCD5): > 45 µM
SMILES: O=C(c1cc(-c2ccccc2)on1)N1CCN(c2ccccc2F)CC1 [Compound 284]

IC50 (human SCD1): > 45 µM
IC50 (human SCD5): > 45 µM
SMILES: O=C(c1cc(-c2ccc3c(c2)OCO3)on1)N1CCCC1c1cnccn1 (centres unmarked) [Compound 418]

IC50 (human SCD1): 2.5 µM
IC50 (human SCD5): 1 µM
SMILES: O=C(c1cc(-c2ccncn2)on1)N1CC(Cc2ccccc2)C1 [Compound 258, (3-benzylazetidin-1-yl)(5-(pyrimidin-4-yl)isoxazol-3-yl)methanone]
